“And” between values parts separate entries of the source, which are not always exact repeats. Equal values may be shown once.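 Briefly, cells in 96-well plates were exposed to five compound concentrations for 48 h, and endpoints were estimated by linear interpolation. Abbreviation: GI50, concentration required for 50% inhibition of growth. At the TGI there is no net growth.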
How the values were obtained:
Test in all cases: inhibition of tumour cell growth, NCI panel, 48 h
SF-268 CNS = tested on: SF-268 CNS
NCI/ADR-RES ovarian = tested on: NCI/ADR-RES ovarian
SN12C renal = tested on: SN12C renal
HCT-116 colon = tested on: HCT-116 colon
KM12 colon = tested on: KM12 colon
COLO 205 colon = tested on: COLO 205 colon
PC-3 prostate = tested on: PC-3 prostate
OVCAR-3 ovarian = tested on: OVCAR-3 ovarian
HS 578T breast = tested on: HS 578T breast
HOP-62 NSCLC = tested on: HOP-62 NSCLC
A498 renal = tested on: A498 renal
786-0 renal = tested on: 786-0 renal
SK-MEL-5 melanoma = tested on: SK-MEL-5 melanoma
MDA-MB-435 = tested on: MDA-MB-435
SK-OV-3 ovarian = tested on: SK-OV-3 ovarian
CCRF-CEM leukemia = tested on: CCRF-CEM leukemia
HL-60(TB) leukemia = tested on: HL-60(TB) leukemia
OVCAR-8 ovarian = tested on: OVCAR-8 ovarian
TK-10 renal = tested on: TK-10 renal
SNB-19 CNS = tested on: SNB-19 CNS
RPMI-8226 leukemia = tested on: RPMI-8226 leukemia
MALME-3M melanoma = tested on: MALME-3M melanoma
HCT-15 colon = tested on: HCT-15 colon
SF-539 CNS = tested on: SF-539 CNS
SK-MEL-28 melanoma = tested on: SK-MEL-28 melanoma
IGROV1 ovarian = tested on: IGROV1 ovarian
SW-620 colon = tested on: SW-620 colon
SK-MEL-2 melanoma = tested on: SK-MEL-2 melanoma
SR leukemia = tested on: SR leukemia
NCI-H23 lung = tested on: NCI-H23 lung
EKVX NSCLC = tested on: EKVX NSCLC
UACC-257 melanoma = tested on: UACC-257 melanoma
SNB-75 CNS = tested on: SNB-75 CNS
NCI-H460 lung = tested on: NCI-H460 lung
OVCAR-5 ovarian = tested on: OVCAR-5 ovarian
NCI-H522 lung = tested on: NCI-H522 lung
ACHN renal = tested on: ACHN renal
UACC-62 melanoma = tested on: UACC-62 melanoma
HT29 colon = tested on: HT29 colon
M14 melanoma = tested on: M14 melanoma
NCI-H226 lung = tested on: NCI-H226 lung
MCF7 breast = tested on: MCF7 breast
K-562 leukemia = tested on: K-562 leukemia
CAKI-1 renal = tested on: CAKI-1 renal
HOP-92 NSCLC = tested on: HOP-92 NSCLC
LOX IMVI melanoma = tested on: LOX IMVI melanoma
MOLT-4 leukemia = tested on: MOLT-4 leukemia
SF-295 CNS = tested on: SF-295 CNS
RXF 393 renal = tested on: RXF 393 renal
MDA-MB-231 breast = tested on: MDA-MB-231 breast
T-47D breast = tested on: T-47D breast
OVCAR-4 ovarian = tested on: OVCAR-4 ovarian
HCC-2998 colon = tested on: HCC-2998 colon
UO-31 renal = tested on: UO-31 renal
A549 NSCLC = tested on: A549 NSCLC
U251 CNS = tested on: U251 CNS
BT-549 breast = tested on: BT-549 breast
DU-145 prostate = tested on: DU-145 prostate

Structure (SMILES): Cc1cc(C(C#N)c2ccc(Cl)cc2)c(Cl)cc1NC(=O)c1cc(I)cc(I)c1O (stereo unspecified)
- GI50 (SF-268 CNS): 7.58 µM and 13.8 µM
- TGI (SF-268 CNS): 22.2 µM and 31.3 µM
- GI50 (NCI/ADR-RES ovarian): 4.03 µM and 15.7 µM
- TGI (NCI/ADR-RES ovarian): 28.9 µM and 54.2 µM
- GI50 (SN12C renal): 3.57 µM and 15.4 µM
- TGI (SN12C renal): 35.6 µM and 39.2 µM
- GI50 (HCT-116 colon): 17.7 µM and 14.5 µM
- TGI (HCT-116 colon): 31.5 µM and 27.6 µM
- GI50 (KM12 colon): 13.7 µM and 15.9 µM
- TGI (KM12 colon): 29.8 µM and 30.5 µM
- GI50 (COLO 205 colon): 15.2 µM and 16.2 µM
- TGI (COLO 205 colon): 28.8 µM and 29.7 µM
- GI50 (PC-3 prostate): 3.18 µM and 11.7 µM
- TGI (PC-3 prostate): 23 µM and 32.5 µM
- GI50 (OVCAR-3 ovarian): 8.33 µM and 14.2 µM
- TGI (OVCAR-3 ovarian): 23.5 µM and 28.5 µM
- GI50 (HS 578T breast): 12 µM
- TGI (HS 578T breast): 34.4 µM
- GI50 (HOP-62 NSCLC): 13.9 µM and 15.2 µM
- TGI (HOP-62 NSCLC): 34.4 µM and 32.4 µM
- GI50 (A498 renal): 11.2 µM
- TGI (A498 renal): 29.9 µM
- GI50 (786-0 renal): 12.6 µM and 16.6 µM
- TGI (786-0 renal): 25.1 µM and 34.7 µM
- GI50 (SK-MEL-5 melanoma): 3.09 µM and 14.2 µM
- TGI (SK-MEL-5 melanoma): 11 µM and 27.3 µM
- GI50 (MDA-MB-435): 12 µM and 18.8 µM
- TGI (MDA-MB-435): 31.6 µM and 42 µM
- GI50 (SK-OV-3 ovarian): 15.6 µM and 15.8 µM
- TGI (SK-OV-3 ovarian): 29.2 µM and 29.5 µM
- GI50 (CCRF-CEM leukemia): 3.87 µM and 17.8 µM
- TGI (CCRF-CEM leukemia): 17 µM and 47.1 µM
- GI50 (HL-60(TB) leukemia): 4.34 µM and 22.1 µM
- TGI (HL-60(TB) leukemia): 15.9 µM and 48.9 µM
- GI50 (OVCAR-8 ovarian): 6.02 µM and 21.4 µM
- TGI (OVCAR-8 ovarian): > 100 µM and 52.1 µM
- GI50 (TK-10 renal): 11.8 µM and 22.4 µM
- TGI (TK-10 renal): 33.9 µM and 65.4 µM
- GI50 (SNB-19 CNS): 5.97 µM and 10.4 µM
- TGI (SNB-19 CNS): 27.1 µM and 27.5 µM
- GI50 (RPMI-8226 leukemia): 3.15 µM and 11.1 µM
- TGI (RPMI-8226 leukemia): 13 µM and 43.5 µM
- GI50 (MALME-3M melanoma): 4.93 µM and 10.4 µM
- TGI (MALME-3M melanoma): 20.2 µM and 27.5 µM
- GI50 (HCT-15 colon): 5.25 µM and 15.8 µM
- TGI (HCT-15 colon): 19.8 µM and 31.7 µM
- GI50 (SF-539 CNS): 8.18 µM and 13.2 µM
- TGI (SF-539 CNS): 23.2 µM and 32.4 µM
- GI50 (SK-MEL-28 melanoma): 5.42 µM and 14.8 µM
- TGI (SK-MEL-28 melanoma): 19.7 µM and 30.3 µM
- GI50 (IGROV1 ovarian): 10.5 µM and 16.1 µM
- TGI (IGROV1 ovarian): 40.9 µM and 36.5 µM
- GI50 (SW-620 colon): 6.91 µM and 16.7 µM
- TGI (SW-620 colon): 22.6 µM and 34.6 µM
- GI50 (SK-MEL-2 melanoma): 7.82 µM and 14.9 µM
- TGI (SK-MEL-2 melanoma): > 100 µM and 40 µM
- GI50 (SR leukemia): 5.97 µM and 9.04 µM
- TGI (SR leukemia): 34.5 µM and > 100 µM
- GI50 (NCI-H23 lung): 6.2 µM and 14.6 µM
- TGI (NCI-H23 lung): 21 µM and 37.3 µM
- GI50 (EKVX NSCLC): 6.71 µM and 13.2 µM
- TGI (EKVX NSCLC): 31.1 µM and 33.7 µM
- GI50 (UACC-257 melanoma): 14.4 µM and 15.1 µM
- TGI (UACC-257 melanoma): 28.1 µM and 29.6 µM
- GI50 (SNB-75 CNS): 12.3 µM and 6.96 µM
- TGI (SNB-75 CNS): 41.5 µM and 25.6 µM
- GI50 (NCI-H460 lung): 4.87 µM and 19.5 µM
- TGI (NCI-H460 lung): 28.5 µM and 46.3 µM
- GI50 (OVCAR-5 ovarian): 11 µM and 15.5 µM
- TGI (OVCAR-5 ovarian): 29.2 µM and 32 µM
- GI50 (NCI-H522 lung): 3.48 µM and 17.8 µM
- TGI (NCI-H522 lung): 10.5 µM and 47.2 µM
- GI50 (ACHN renal): 15.5 µM and 17.2 µM
- TGI (ACHN renal): 46.1 µM and 37.1 µM
- GI50 (UACC-62 melanoma): 2.96 µM and 8.79 µM
- TGI (UACC-62 melanoma): 11.5 µM and 23.8 µM
- GI50 (HT29 colon): 7.23 µM and 18.6 µM
- TGI (HT29 colon): 22.6 µM and 40.4 µM
- GI50 (M14 melanoma): 14.7 µM and 16.3 µM
- TGI (M14 melanoma): 29.9 µM and 34.2 µM
- GI50 (NCI-H226 lung): 11.9 µM
- TGI (NCI-H226 lung): 43.4 µM
- GI50 (MCF7 breast): 6.58 µM and 15.7 µM
- TGI (MCF7 breast): 23.8 µM and 32.4 µM
- GI50 (K-562 leukemia): 15.5 µM
- TGI (K-562 leukemia): 47.5 µM
- GI50 (CAKI-1 renal): 10.2 µM and 14.3 µM
- TGI (CAKI-1 renal): 35.1 µM and 40.9 µM
- GI50 (HOP-92 NSCLC): 1.47 µM
- TGI (HOP-92 NSCLC): 4.65 µM
- GI50 (LOX IMVI melanoma): 10.4 µM and 16.7 µM
- TGI (LOX IMVI melanoma): 26.1 µM and 35.5 µM
- GI50 (MOLT-4 leukemia): 4.74 µM and 22.6 µM
- TGI (MOLT-4 leukemia): 19.3 µM and 53.9 µM
- GI50 (SF-295 CNS): 3.22 µM and 10.9 µM
- TGI (SF-295 CNS): 14.7 µM and 30.1 µM
- GI50 (RXF 393 renal): 10.8 µM and 5.95 µM
- TGI (RXF 393 renal): 23.7 µM and 19.4 µM
- GI50 (MDA-MB-231 breast): 5.48 µM and 14.2 µM
- TGI (MDA-MB-231 breast): 23.9 µM and 37.9 µM
- GI50 (T-47D breast): 19.1 µM and 15.2 µM
- TGI (T-47D breast): 46.9 µM and 37 µM
- GI50 (OVCAR-4 ovarian): 16.4 µM and 17.5 µM
- TGI (OVCAR-4 ovarian): 51.4 µM and 47.9 µM
- GI50 (HCC-2998 colon): 4.08 µM and 10.8 µM
- TGI (HCC-2998 colon): 15.4 µM and 24 µM
- GI50 (UO-31 renal): 14.7 µM and 14.8 µM
- TGI (UO-31 renal): 31.4 µM and 35.1 µM
- GI50 (A549 NSCLC): 13.6 µM and 21.3 µM
- TGI (A549 NSCLC): 56.3 µM and 44.5 µM
- GI50 (U251 CNS): 6.1 µM and 16 µM
- TGI (U251 CNS): 33.4 µM and 38.2 µM
- GI50 (BT-549 breast): 4.03 µM and 8.64 µM
- TGI (BT-549 breast): 11.8 µM and 23.4 µM
- GI50 (DU-145 prostate): 14.5 µM and 15.2 µM
- TGI (DU-145 prostate): 28.7 µM and 29.1 µM

From PubChem BioAssay (NCI)
